Laboratory results reported in PMC6627609, “Targeting Quorum Sensing: High-Throughput Screening to Identify Novel LsrK Inhibitors” (International Journal of Molecular Sciences, 2019).
Structures can show the parent of a compound that is named as a salt.

The molecules below were run against LsrK (Salmonella typhimurium, UniProt Q8ZKQ6) (assay: biochemical). Conditions: not given.
Type: biochemical, S. typhimurium

Chain of LsrK (Q8ZKQ6 whole entry): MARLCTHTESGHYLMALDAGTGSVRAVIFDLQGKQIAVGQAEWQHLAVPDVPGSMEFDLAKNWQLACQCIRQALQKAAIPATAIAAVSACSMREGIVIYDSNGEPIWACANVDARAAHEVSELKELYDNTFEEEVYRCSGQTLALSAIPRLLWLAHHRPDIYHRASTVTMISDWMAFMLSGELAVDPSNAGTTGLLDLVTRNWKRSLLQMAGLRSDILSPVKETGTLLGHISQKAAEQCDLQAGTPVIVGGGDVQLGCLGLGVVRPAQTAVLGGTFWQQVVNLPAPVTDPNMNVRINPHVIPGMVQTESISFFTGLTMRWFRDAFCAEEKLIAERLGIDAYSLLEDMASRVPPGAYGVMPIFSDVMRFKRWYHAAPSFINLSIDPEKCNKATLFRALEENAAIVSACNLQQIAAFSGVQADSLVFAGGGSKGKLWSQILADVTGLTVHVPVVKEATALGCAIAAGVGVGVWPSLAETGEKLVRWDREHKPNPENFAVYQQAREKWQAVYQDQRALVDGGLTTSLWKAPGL

SMILES	inhibition at 50 µM [%]
C[C@H]1C[C@H]2[C@@H]3CCC4=CC(=O)C=C[C@]4(C)[C@@]3(F)[C@@H](O)C[C@]2(C)[C@@]1(O)C(=O)CO [BETAMETHASONE]	1
O=C(O)CCNC(=O)c1ccccc1 [BETAMIPRON]	0
C=C(C)[C@@H]1CC[C@]2(CO)CC[C@]3(C)[C@H](CC[C@@H]4[C@@]5(C)CC[C@H](O)C(C)(C)[C@@H]5CC[C@]43C)[C@@H]12 [BETULIN]	4
CC(C)(Oc1ccc(CCNC(=O)c2ccc(Cl)cc2)cc1)C(=O)O [BEZAFIBRATE]	2
OC(CCN1CCCCC1)(c1ccccc1)C1CC2C=CC1C2 (stereo not drawn) [BIPERIDEN]	1
CCc1ccc2c(O)c3c(cc2c1C(=O)OC)C(=O)c1c(O)ccc(O)c1C3=O [BISANHYDRORUTILANTINONE]	2
CC(C)NCC(O)COc1ccc(COCCOC(C)C)cc1 (stereo not drawn) [BISOPROLOL FUMARATE]	0
COC(=O)/C=C/C(C)=C\C=C\C(C)=C\C=C\C=C(C)\C=C\C=C(C)\C=C\C(=O)O [BIXIN]	79
O=C(O)CC[N+](=O)[O-] [BOVINOCIDIN (3-nitropropionic acid), 3-nitropropionic acid]	5
O=C1C=C2CC3(O)COc4cc(O)ccc4C3=C2C=C1O (stereo not drawn) [BRAZILEIN]	66
Oc1ccc2c(c1)OC[C@]1(O)Cc3cc(O)c(O)cc3[C@H]21 [BRAZILIN]	133
CC1(C)CC2C1CC[C@]1(CBr)CCC3C(CC(=O)O)C(=O)O[C@@]32C1 (stereo partly drawn) [BROMO-3-HYDROXY-4-(SUCCIN-2-YL)-CARYOLANE gamma-LACTONE]	1
O=C(CCCN1CCC(O)(c2ccc(Br)cc2)CC1)c1ccc(F)cc1 [BROMPERIDOL]	1
CN(C)CCC(c1ccc(Br)cc1)c1ccccn1 (stereo not drawn) [BROMPHENIRAMINE MALEATE]	1
COc1cc2c(cc1OC)[C@@]13CCN4CC5=CCO[C@H]6CC(=O)N2[C@H]1[C@H]6[C@H]5C[C@H]43 [BRUCINE]	2
CCOc1ccc(NC(=O)CC(C)O)cc1 (stereo not drawn) [BUCETIN]	0
CCCC1O[C@@H]2C[C@H]3[C@@H]4CCC5=CC(=O)C=C[C@]5(C)[C@H]4[C@@H](O)C[C@]3(C)[C@]2(C(=O)CO)O1 (stereo partly drawn) [BUDESONIDE]	2
CCCCNc1cc(C(=O)O)cc(S(N)(=O)=O)c1Oc1ccccc1 [BUMETANIDE]	1
CCCCN1CCCCC1C(=O)Nc1c(C)cccc1C (stereo not drawn) [BUPIVACAINE HYDROCHLORIDE]	2
CCCCN(CCCC)CCCOC(=O)c1ccc(N)cc1 [BUTACAINE]	3
CC(=O)OC[C@@]1(O)C[C@@]23CC[C@@H]4c5ccoc5CC[C@@]4(C)[C@@H]2CC[C@@H]1C3 [CAFESTOL ACETATE]	1
CC[C@@]1(O)C(=O)OCc2c1cc1n(c2=O)Cc2cc3ccccc3nc2-1 [CAMPTOTHECIN]	1
C[C@]12CCC(=O)C=C1C=C[C@@H]1[C@@H]2CC[C@@]2(C)[C@H]1CC[C@@]21CCC(=O)O1 [CANRENONE]	1
C[C@@]12C(=O)OC(=O)[C@]1(C)[C@H]1CC[C@@H]2O1 [CANTHARIDIN]	4

Same assay, conditions: 50 µM

SMILES	Inhibition (%)
COc1ccc(-c2coc3cc(O)cc(O)c3c2=O)cc1 [BIOCHANIN A]	25
COc1cc(OC)c(C(=O)CCCN2CCCC2)c(OC)c1.Cl [BUFLOMEDIL HYDROCHLORIDE]	1
CCOc1nc2cccc(C(=O)OC(C)OC(=O)OC3CCCCC3)c2n1Cc1ccc(-c2ccccc2-c2nn[nH]n2)cc1 (stereo not drawn) [CANDESARTAN CILEXTIL, reference compound]	101
C[C@]12CCC(=O)C=C1C=C[C@@H]1[C@@H]2CC[C@@]2(C)[C@H]1CC[C@@]2(O)CCC(=O)[O-].[K+] [CANRENOIC ACID. POTASSIUM SALT]	0
CC1=C(/C=C/C(C)=C/C=C/C(C)=C/C=C/C=C(C)/C=C/C=C(C)/C=C/C2=C(C)C(=O)CCC2(C)C)C(C)(C)CCC1=O [CANTHAXANTHIN (euglenanone), CANTHAXANTHIN]	2

Same assay, conditions: read-out: IC50 against LsrK

SMILES	IC50 [µM]
CCOc1nc2cccc(C(=O)OC(C)OC(=O)OC3CCCCC3)c2n1Cc1ccc(-c2ccccc2-c2nn[nH]n2)cc1 (stereo not drawn) [CANDESARTAN CILEXTIL, reference compound]	14
